Source: US11384079B2, “6-5 fused rings as C5a inhibitors” (CHEMOCENTRYX, INC., priority 2017, dated 2022)

Each compound was assayed against T1, C5aR (Homo sapiens, UniProt P21730) (assay: chemotaxis assay (C5aR mediated migration)). Conditions: migration of U937 or neutrophil cells toward C5a (0.03 nM), 1.5 hours at 37° C., read-out: Mig IC50.
T1 construct: U937 cells are a monocytic cell line which express C5aR; host or cells: U937 cells (cAMP treated) or isolated neutrophils
T1 sequence (P21730 1-350): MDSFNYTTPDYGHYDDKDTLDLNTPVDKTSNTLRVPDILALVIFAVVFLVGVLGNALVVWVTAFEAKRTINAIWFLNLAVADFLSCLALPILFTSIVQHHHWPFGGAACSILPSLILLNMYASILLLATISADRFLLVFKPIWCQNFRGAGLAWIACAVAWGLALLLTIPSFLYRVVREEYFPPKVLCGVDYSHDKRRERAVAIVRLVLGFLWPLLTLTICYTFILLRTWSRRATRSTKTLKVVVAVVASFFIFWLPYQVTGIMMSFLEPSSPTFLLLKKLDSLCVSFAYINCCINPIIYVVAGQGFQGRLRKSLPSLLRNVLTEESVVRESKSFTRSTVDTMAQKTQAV
Format: cell-based
Procedure, shortened: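 Migration of cAMP-treated U937 cells (0.5 mM overnight), or of human or murine neutrophils, toward C5a was measured through 5 μm polycarbonate filters in HBSS with 1% FBS. SDF-1α served as a specificity control. After 1.5 h at 37 °C, lower-chamber cells were counted directly or by CyQuant.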

IC50 | SMILES
< 5 nM | CCc1cccc(CC)c1-n1nc2c(c1-c1ncc(Cl)c3[nH]ccc13)CN(c1ncc(C(F)(F)F)cn1)CC2 [Example 1.008]
< 5 nM | CCc1cccc(CC)c1-n1nc2c(c1-c1ccc(C)c3[nH]ccc13)CN(c1ncc(C(C)C)cn1)CC2 [Example 1.147]
5 to 50 nM | CCc1cccc(CC)c1-n1nc2c(c1-c1c(F)cc(Cl)c3[nH]ccc13)CN(c1ncc(CN3CCCC3)cn1)CC2 [Example 1.055]
5 to 50 nM | CCc1cccc(CC)c1-n1nc2c(c1-c1ccc3[nH]ccc3c1)CN(C1CCCC1)CC2 [Example 1.209]
< 5 nM | CCc1cccc(CC)c1-n1nc2c(c1-c1ccc(Cl)c3[nH]ccc13)CN(c1ccc(C(F)(F)F)cn1)CC2 [Example 1.163]
50 to 500 nM | Cc1cccc(OCC(C)C)c1-n1nc2c(c1-c1ccc3[nH]cc(C)c3c1)CN(c1ncc(C(F)(F)F)cc1F)CC2 [Example 1.204]
5 to 50 nM | CCc1cccc(CC)c1-n1nc2c(c1-c1ccc3[nH]ccc3c1)CN(c1ncc(C(F)(F)F)cc1F)CC2 [Example 1.082]
50 to 500 nM | CCc1cccc(CC)c1-n1nc2c(c1-c1cc3cc[nH]c3cn1)CN(c1ncc(C(F)(F)F)cn1)CC2 [Example 1.012]
< 5 nM | CCc1cccc(CC)c1-n1nc2c(c1-c1ccc(Cl)c3[nH]ccc13)CN(c1ncc(Cl)cc1F)CC2 [Example 1.099]
< 5 nM | CCc1cccc(CC)c1-n1nc2c(c1-c1c(F)cc(CO)c3[nH]ccc13)CN(c1ncc(C(C)C)cn1)CC2 [Example 1.098]
5 to 50 nM | CCc1cccc(CC)c1-n1nc2c(c1-c1ccc(F)c3[nH]ccc13)CN(c1cnccn1)CC2 [Example 1.173]
5 to 50 nM | Cc1cccc(C)c1-n1nc2c(c1-c1c(F)cc(Cl)c3[nH]ccc13)CN(c1ncc(C(C)C)cc1F)CC2 [Example 1.105]
< 5 nM | CCc1cccc(CC)c1-n1nc2c(c1-c1ccc3[nH]ccc3c1)CN(C(CC)CC)CC2 [Example 1.212]
< 5 nM | CCc1cccc(CC)c1-n1nc2c(c1-c1ccc(Cl)c3[nH]ccc13)CN(c1ncc(C3CC3)cc1Cl)CC2 [Example 1.073]
5 to 50 nM | Cc1cccc(C)c1-n1nc2c(c1-c1c(F)cc(C)c3[nH]ccc13)CN(c1ncc(Cl)cc1F)CC2 [Example 1.091]
< 5 nM | CCc1cccc(CC)c1-n1nc2c(c1-c1cc(F)c(CO)c3[nH]ccc13)CN(c1ncc(C(F)(F)F)cc1F)CC2 [Example 1.078]
5 to 50 nM | CCc1cccc(CC)c1-n1nc2c(c1-c1c(F)cc(F)c3[nH]ccc13)CN(c1ncc(C(F)(F)F)cc1F)CC2 [Example 1.182]
> 500 nM | Cc1cccc(OCC(C)C)c1-n1nc2c(c1-c1ccc3[nH]nc(N)c3c1)CN(c1ncc(C(F)(F)F)cc1F)CC2 [Example 1.225]
5 to 50 nM | Cc1cccc(C)c1-n1nc2c(c1-c1c(F)cc(Cl)c3[nH]ccc13)CN(c1ncc(C(F)(F)F)cc1F)CC2 [Example 1.124]
5 to 50 nM | CCc1cccc(CC)c1-n1nc2c(c1-c1ccc3[nH]c(C)nc3c1Cl)CN(c1ncc(C(F)(F)F)cn1)CC2 [Example 1.037]
< 5 nM | CCc1cccc(CC)c1-n1nc2c(c1-c1cc(F)c(CO)c3[nH]ccc13)CN(c1ncc(C(F)(F)F)cn1)CC2 [Example 1.077]

IC50 | SMILES
< 5 nM | CCc1cccc(CC)c1-n1nc2c(c1-c1cc(F)c(CO)c3[nH]cnc13)CN(c1ncc(C(F)(F)F)cn1)CC2 [Example 1.030]
5 to 50 nM | CCc1cccc(CC)c1-n1nc2c(c1-c1ccc(F)c3[nH]cc(Cl)c13)CN(c1ncc(C(F)(F)F)cc1F)CC2 [Example 1.162]
< 5 nM | Cc1cccc(OCC(C)C)c1-n1nc2c(c1-c1ccc3[nH]ccc3c1)CN(CC(C)(C)C)CC2 [Example 1.237]
< 5 nM | CCc1cccc(CC)c1-n1nc2c(c1-c1c(F)cc(Cl)c3[nH]ccc13)CN(c1ncc(C3CC3)cc1F)CC2 [Example 1.062]
5 to 50 nM | Cc1cccc(OCC(C)C)c1-n1nc2c(c1-c1cccc3[nH]ccc13)CN(Cc1cc(Cl)ccc1C(F)(F)F)CC2 [Example 1.205]
< 5 nM | CCc1cccc(CC)c1-n1nc2c(c1-c1cc(F)c(OC)c3[nH]ncc13)CN(c1ncc(C(F)(F)F)cc1F)CC2 [Example 1.051]
< 5 nM | CCc1cccc(CC)c1-n1nc2c(c1-c1ncc(C)c3[nH]ccc13)CN(c1ncc(C(F)(F)F)cn1)CC2 [Example 1.020]
5 to 50 nM | Cc1cccc(C)c1-n1nc2c(c1-c1ncc(Cl)c3[nH]ccc13)CN(c1ncc(C3CC3)cn1)CC2 [Example 1.001]
5 to 50 nM | Cc1cccc(OCC(C)C)c1-n1nc2c(c1-c1ccc3[nH]ccc3c1)CN(C(=O)OC(C)(C)C)CC2 [Example 1.018]
5 to 50 nM | Cc1cccc(C)c1-n1nc2c(c1-c1ccc(Cl)c3[nH]ncc13)CN(c1ncc(C(F)(F)F)cn1)CC2 [Example 1.049]
50 to 500 nM | COc1cccc(C)c1-n1nc2c(c1-c1ccc3[nH]ccc3c1)CN(C(=O)OC(C)(C)C)CC2 [Example 1.134]
< 5 nM | CCc1cccc(CC)c1-n1nc2c(c1-c1cc(F)c(C)c3[nH]ccc13)CN(c1ncc(C(F)(F)F)cc1F)CC2 [Example 1.123]
5 to 50 nM | Cc1cccc(OCC(C)C)c1-n1nc2c(c1-c1ccc3[nH]ccc3c1)CN(C(=O)OCc1ccccc1)CC2 [Example 1.238]
50 to 500 nM | CCc1cccc(CC)c1-n1nc2c(c1-c1cccc3[nH]c(C(F)(F)F)nc13)CN(c1ncc(C(F)(F)F)cn1)CC2 [Example 1.042]
< 5 nM | CCc1cccc(CC)c1-n1nc2c(c1-c1ccc(Cl)c3[nH]ccc13)CN(c1ncc(C(C)C)cn1)CC2 [Example 1.164]
< 5 nM | CCc1cccc(CC)c1-n1nc2c(c1-c1c(F)cc(Cl)c3[nH]ccc13)CN(c1ncc(C(C)C)cn1)CC2 [Example 1.132]
5 to 50 nM | CCc1cccc(CC)c1-n1nc2c(c1-c1ccc3[nH]ccc3c1)CN(C(C)c1ccccc1C(F)(F)F)CC2 (stereo not shown) [Example 1.202]
5 to 50 nM | COc1cccc(C)c1-n1nc2c(c1-c1ccc3[nH]ccc3c1)CN(c1cc(C(C)(C)C)ccc1C)CC2 [Example 1.006]
50 to 500 nM | Cc1cccc(C)c1-n1nc2c(c1-c1ccc(F)c3[nH]cc(Cl)c13)CN(c1ncc(C(F)(F)F)cc1F)CC2 [Example 1.166]
50 to 500 nM | Cc1cccc(OCC(C)C)c1-n1nc2c(c1-c1ccc3[nH]ccc3c1)CN(C(=O)NC(C)(C)C)CC2 [Example 1.186]
< 5 nM | CCc1cccc(CC)c1-n1nc2c(c1-c1cc(Cl)c(C)c3[nH]ccc13)CN(c1ncc(C(F)(F)F)cc1F)CC2 [Example 1.080]

IC50 | SMILES
< 5 nM | CCc1cccc(CC)c1-n1nc2c(c1-c1cc(F)c(OC)c3[nH]cnc13)CN(c1ncc(C(F)(F)F)cn1)CC2 [Example 1.036]
5 to 50 nM | CCc1cccc(CC)c1-n1nc2c(c1-c1ccc(Cl)c3[nH]c(C)nc13)CN(c1ncc(C(F)(F)F)cn1)CC2 [Example 1.038]
5 to 50 nM | Cc1cccc(C)c1-n1nc2c(c1-c1ccc(Cl)c3[nH]ccc13)CN(c1ncc(C(C)C)cc1F)CC2 [Example 1.153]
< 5 nM | CCc1cccc(CC)c1-n1nc2c(c1-c1ccc(C)c3[nH]ccc13)CN(c1ncc(C(C)C)cc1F)CC2 [Example 1.136]
< 5 nM | CCc1cccc(CC)c1-n1nc2c(c1-c1ccc(Cl)c3[nH]ccc13)CN(c1cnccn1)CC2 [Example 1.057]
5 to 50 nM | CCc1cccc(CC)c1-n1nc2c(c1-c1cc(F)c(F)c3[nH]ccc13)CN(c1ccc(C(F)(F)F)cn1)CC2 [Example 1.116]
< 5 nM | CCc1cccc(CC)c1-n1nc2c(c1-c1ccc(OC)c3[nH]ncc13)CN(c1ncc(C(F)(F)F)cn1)CC2 [Example 1.053]
5 to 50 nM | CCc1cccc(CC)c1-n1nc2c(c1-c1ccc(Cl)c3[nH]ccc13)CN(c1ncc(CO)cn1)CC2 [Example 1.097]
5 to 50 nM | CCc1cccc(CC)c1-n1nc2c(c1-c1ncc(OC)c3[nH]ccc13)CN(c1ncc(C(F)(F)F)cn1)CC2 [Example 1.013]
< 5 nM | CCc1cccc(CC)c1-n1nc2c(c1-c1cc(F)c(OC)c3[nH]cc(Cl)c13)CN(c1ncc(C(F)(F)F)cn1)CC2 [Example 1.032]
5 to 50 nM | Cc1cccc(C)c1-n1nc2c(c1-c1ccc3[nH]ccc3c1)CN(CC(C)(C)C)CC2 [Example 1.239]
< 5 nM | CCc1cccc(CC)c1-n1nc2c(c1-c1cc(F)c(Cl)c3[nH]ncc13)CN(c1ncc(C(F)(F)F)cn1)CC2 [Example 1.041]
50 to 500 nM | CCc1cccc(CC)c1-n1nc2c(c1-c1ccc(C(N)=O)c3[nH]ccc13)CN(c1ncc(C(F)(F)F)cc1F)CC2 [Example 1.168]
5 to 50 nM | CCc1cccc(CC)c1-n1nc2c(c1-c1cccc3[nH]ccc13)CN(c1ncc(C(F)(F)F)cn1)CC2 [Example 1.040]
5 to 50 nM | CCc1cccc(CC)c1-n1nc2c(c1-c1ccc(Cl)c3[nH]ccc13)CN(c1nccc(C)n1)CC2 [Example 1.110]
< 5 nM | CCc1cccc(CC)c1-n1nc2c(c1-c1ccc(Cl)c3[nH]cnc13)CN(c1ncc(C(F)(F)F)cn1)CC2 [Example 1.035]
5 to 50 nM | CCc1cccc(CC)c1-n1nc2c(c1-c1ccnc3[nH]ccc13)CN(c1ncc(C(F)(F)F)cn1)CC2 [Example 1.029]
5 to 50 nM | CCC(CC)N1CCc2nn(-c3c(C)cccc3OCC(C)C)c(-c3ccc4[nH]ccc4c3)c2C1 [Example 1.207]
< 5 nM | CCc1cccc(CC)c1-n1nc2c(c1-c1cc(F)c(OC)c3[nH]ccc13)CN(c1ncc(OC(C)C)cn1)CC2 [Example 1.054]
